From PubChem BioAssay (NCI) come the findings set out here.

Test systems include NCI-H460 lung; CCRF-CEM leukemia; SF-268 CNS; LOX IMVI melanoma; HOP-62 NSCLC; A498 renal; ACHN renal; NCI-H23 lung; HT29 colon; NCI-H522 lung.
Holding throughout (assay): NCI anticancer screen, dose series, 48 h

Structures are written as SMILES. Values joined by “and” are separate entries in the source; they are usually repeats but may differ in a detail not shown here. Equal entries are not always repeated.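 These data come from cells grown in 96-well plates and exposed to compound for 48 hours at five concentrations. Abbreviation: GI50, concentration required for 50% inhibition of growth. Definition used: TGI = concentration required for complete inhibition of growth.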

Turning to `Cc1cc(C2CCCCC2)n(O)c(=O)c1`, the GI50 in the experiment on NCI-H460 lung is 0.507 µM; in the experiment with SF-268 CNS, 1.27 µM; in the experiment on LOX IMVI melanoma, 0.757 µM; in the experiment on HOP-62 NSCLC it was 0.913 µM; in the experiment with A498 renal it was 7 µM; with ACHN renal, 1.06 µM. Further, the GI50 is 3.03 µM in the experiment on NCI-H23 lung, 5.27 µM in the experiment on HT29 colon and 4.8 µM in the experiment on NCI-H522 lung. Besides, the TGI was 74.5 µM with CCRF-CEM leukemia; above 100 µM with SF-268 CNS; 80.3 µM and 80.1 µM with LOX IMVI melanoma; 40 µM with HOP-62 NSCLC; > 100 µM and 46.7 µM in the experiment with A498 renal; above 100 µM with ACHN renal. In addition, the TGI was > 100 µM and 64.8 µM in the experiment on NCI-H23 lung; above 100 µM in the experiment on HT29 colon; 49.9 µM and 35.2 µM with NCI-H522 lung.
Consider `Cc1[nH]c(N=Nc2ccccc2)nc1N=Nc1ccccc1`, for which the GI50 in the experiment with NCI-H460 lung is 2.37 µM; in the experiment with CCRF-CEM leukemia, 2.19 µM; with SF-268 CNS, 2.45 µM; in the experiment on LOX IMVI melanoma, 2.72 µM; with HOP-62 NSCLC it was 4.09 µM; in the experiment with A498 renal it was 5.1 µM. For the same compound, the GI50 is 2.15 µM in the experiment on ACHN renal, 3.28 µM with NCI-H23 lung, 4.57 µM with HT29 colon and 2.69 µM in the experiment with NCI-H522 lung. In addition, the TGI in the experiment with NCI-H460 lung was 8.09 µM; with CCRF-CEM leukemia, above 25.3 µM; with SF-268 CNS, 11.5 µM; in the experiment with LOX IMVI melanoma, 20.9 µM; in the experiment on HOP-62 NSCLC, 17.1 µM; with A498 renal, 25.6 µM. In addition, the TGI with ACHN renal was 7.89 µM; in the experiment with NCI-H23 lung it was above 36.3 µM; with HT29 colon, 20.8 µM; in the experiment with NCI-H522 lung it was above 34.5 µM.
Regarding `CCCCCCCCCCCCCCCCOP(=O)(O)Oc1ccc(/C=C\c2ccc(OP(=O)(O)OCCCCCCCCCCCCCCCC)cc2)cc1`, the TGI in the experiment with NCI-H460 lung is above 100 µM; in the experiment on CCRF-CEM leukemia it was 88.7 µM; in the experiment with SF-268 CNS, above 100 µM; in the experiment on LOX IMVI melanoma, above 100 µM; in the experiment on HOP-62 NSCLC, above 100 µM; in the experiment with A498 renal it was above 100 µM. Further, the TGI in the experiment on ACHN renal, in the experiment with NCI-H23 lung, with HT29 colon and with NCI-H522 lung was above 100 µM throughout.
Take `Cc1cc(NS(=O)(=O)c2ccc(NC(=O)c3cccc4c(=O)c5ccccc5[nH]c34)cc2)no1`: the TGI was above 100 µM in the experiment with NCI-H460 lung; 94.2 µM with CCRF-CEM leukemia; above 100 µM in the experiment on SF-268 CNS; above 100 µM in the experiment on LOX IMVI melanoma; 50.6 µM in the experiment with HOP-62 NSCLC; 79 µM in the experiment on A498 renal. In addition, the TGI is above 100 µM in the experiment with ACHN renal, above 100 µM in the experiment on NCI-H23 lung, above 100 µM in the experiment with HT29 colon and 56.6 µM in the experiment on NCI-H522 lung.
For `COC(=O)C(=O)C(C(=O)C=C(C)C)C(=O)C(=O)Nc1ccc(Cl)cc1C` (stereo not drawn), the TGI in the experiment on NCI-H460 lung, in the experiment on CCRF-CEM leukemia, in the experiment on SF-268 CNS, in the experiment with LOX IMVI melanoma, in the experiment with HOP-62 NSCLC and with A498 renal was above 100 µM in each case. Further, the TGI in the experiment with ACHN renal, with NCI-H23 lung, in the experiment with HT29 colon and in the experiment on NCI-H522 lung was above 100 µM throughout.
Take `COc1cc2c3c(n(CCCBr)c(=O)c2cc1OC)-c1ccc(NC(C)=O)cc1C3=O`: the GI50 was 0.506 µM in the experiment on NCI-H460 lung; 1.44 µM in the experiment with CCRF-CEM leukemia; 2.11 µM with SF-268 CNS; 2.1 µM in the experiment on LOX IMVI melanoma; 1.29 µM in the experiment on HOP-62 NSCLC; 2.69 µM in the experiment on A498 renal. Also, the GI50 with ACHN renal was 3.07 µM; with NCI-H23 lung, 11.8 µM; in the experiment with HT29 colon it was 2.99 µM; in the experiment with NCI-H522 lung, 12.4 µM. The TGI in the experiment with NCI-H460 lung was 7.31 µM; in the experiment with CCRF-CEM leukemia, 19.1 µM; in the experiment with SF-268 CNS it was above 100 µM; in the experiment on LOX IMVI melanoma, 15 µM; in the experiment with HOP-62 NSCLC it was 21.3 µM; with A498 renal, 8.47 µM. Moreover, the TGI was above 100 µM in the experiment on ACHN renal, 46.4 µM with NCI-H23 lung, above 100 µM with HT29 colon and above 100 µM in the experiment with NCI-H522 lung.
`CCC(C)(O)c1cn(-c2cccc(S(=O)(=O)O)c2)nn1` (stereo not drawn): the TGI in the experiment with NCI-H460 lung, in the experiment with CCRF-CEM leukemia, in the experiment on SF-268 CNS, with LOX IMVI melanoma, with HOP-62 NSCLC and with A498 renal was above 100 µM each time. Besides, the TGI in the experiment on ACHN renal, with NCI-H23 lung, with HT29 colon and with NCI-H522 lung was above 100 µM in each case.
On to `COc1cccc(N=Cc2c3ccccc3c(=O)n3c2oc2ccccc23)c1`, for which the GI50 is 11.3 µM in the experiment on NCI-H460 lung; 4.58 µM with CCRF-CEM leukemia; 37.1 µM in the experiment with SF-268 CNS; 5.13 µM in the experiment on LOX IMVI melanoma; 13.7 µM with HOP-62 NSCLC; 17.2 µM in the experiment on A498 renal. The GI50 in the experiment with ACHN renal is 7.11 µM; in the experiment on NCI-H23 lung, 13.3 µM; with HT29 colon, 32.7 µM; in the experiment on NCI-H522 lung, 24 µM. The TGI in the experiment on NCI-H460 lung was above 100 µM; in the experiment on CCRF-CEM leukemia, 73.2 µM; with SF-268 CNS, above 100 µM; with LOX IMVI melanoma, 30.3 µM; with HOP-62 NSCLC, 90.1 µM; with A498 renal, 61.4 µM. The TGI with ACHN renal is 30 µM; in the experiment on NCI-H23 lung it was 59 µM; in the experiment on HT29 colon it was above 100 µM; in the experiment with NCI-H522 lung, above 100 µM.
As to `CN1C(NC(=O)c2ccc(Cl)nc2)=NS(=O)(=O)c2cc(Cl)ccc21`, the GI50 in the experiment with NCI-H460 lung, with CCRF-CEM leukemia, with SF-268 CNS, in the experiment with LOX IMVI melanoma, with HOP-62 NSCLC and with A498 renal was above 100 µM throughout. Also, the GI50 in the experiment on ACHN renal, in the experiment on NCI-H23 lung, with HT29 colon and with NCI-H522 lung was above 100 µM throughout. For the same compound, the TGI in the experiment on NCI-H460 lung, in the experiment on CCRF-CEM leukemia, in the experiment with SF-268 CNS, in the experiment on LOX IMVI melanoma, with HOP-62 NSCLC and in the experiment with A498 renal was above 100 µM throughout. Also, the TGI in the experiment with ACHN renal, in the experiment on NCI-H23 lung, with HT29 colon and with NCI-H522 lung was above 100 µM throughout.
